Values of other authors in patent publication US20220024925A1, “Deuterium-Substituted 7-Substituted-2-(Benzylamino)-6-Ozopurine Compounds and Uses Thereof” (Acurx Pharmaceuticals LLC, priority 2020, published 2022).

Columns and labels:
[1] = test system: other, intestinal Gram-positive anaerobes; settings: stated in words only; see Wright et al., U.S. Pat. No. 8,796,292
C. diff = settings: stated in words only; see Wright et al., U.S. Pat. No. 8,796,292

SMILES: O=c1[nH]c(NCc2ccc(Cl)c(Cl)c2)nc2ncn(CCN3CCOCC3)c12 [Compound I-1, 2-((3,4-dichlorobenzyl)amino)-7-(2-morpholinoethyl)-1,7-dihydro-6H-purin-6-one]
- activity against other, intestinal Gram-positive anaerobes [1]: weak activity
- activity against the growth of the intestinal anaerobe C. diff (C. diff): potent activity
